Where two headings read alike, the source gives them in different places.

For series [1] the following is noted: crystal powder, 400 taps at 1 tap/sec, 100 mL container, average of three. On the procedure:
Here, the “dense specific volume” refers to a value which is obtained by dividing a volume occupied by a powder by a mass when the powder is filled in a container, a certain impact is applied to the container, and then the mass of the powder is measured.
The dense specific volume can be measured, for example, using Multi Tester MT-1001T (manufactured by Seishin Enterprise Co., Ltd.) according to the accompanying manual under the following conditions based on the 17th revision, Pharmacopoeia of Japan.
[Measurement Conditions for Dense Specific Volume]
(§1) Apparatus for use: multi-tester MT-1001T type (manufactured by Seishin Enterprise Co., Ltd.)
(§2) Vibration range: 0.7 mm to 0.8 mm
Specific example of method of measuring dense specific volume: A 100 mL cylindrical container made of stainless steel equipped with an auxiliary cylinder is filled while the crystal is dropped via a 1.18 mm sieve vibrated at a range of 0.7 mm to 0.8 mm. […] The measurement is independently performed three times to determine an average value.

For series [2] the following is noted: crystal powder, 1.18 mm sieve, 100 mL container, average of three. On the procedure:
Here, the “loose specific volume” refers to a value which is obtained by dividing a volume occupied by a powder by a mass when the powder is filled in a container and the mass of the powder is measured.
The loose specific volume can be measured using Multi Tester MT-1001T (manufactured by Seishin Enterprise Co., Ltd.) according to the accompanying manual under the following conditions based on the 17th revision, Pharmacopoeia of Japan.
[Measurement Conditions for Loose Specific Volume]
as §1, §2
Specific example of method of measuring loose specific volume: A 100 mL cylindrical container made of stainless steel is filled while the crystal is dropped via a 1.18 mm sieve vibrated at a range of 0.7 mm to 0.8 mm. Excess powder is carefully rubbed off from the top surface of the container, and the mass of the powder is measured by subtracting the mass of an empty measurement container measured in advance. The measurement is independently performed three times to determine an average value.

For series [3] the following is noted: crystal powder, after three impacts, mean of three sites. From the text: Here, the “angle of rupture” refers to an angle formed by a horizontal plane and a generating line of a cone which is formed when a certain impact is applied indirectly to a cone formed with a powder when the powder is allowed to gently fall onto the horizontal plane through a kind of a funnel.
The angle of rupture can be measured using Multi Tester MT-1001T (manufactured by Seishin Enterprise Co., Ltd.) according to the accompanying manual by the following method.
A weight attached to the bottom of a repose angle table unit (component number: MT-1028) is slowly lifted under a tapping table and allowed to fall after the measurement of the angle of repose. This operation is repeated three times. In the same manner as the method of measuring the angle of repose, angles are read at three sites, and the arithmetic mean thereof is determined to be the angle of rupture.

The conditions of series [4]: crystal powder, mean of three sites.
Text: Here, the “angle of repose” refers to an angle formed by a horizontal plane and a generating line of a cone formed with a powder when the powder is allowed to gently fall onto the horizontal plane through a kind of a funnel.
The angle of repose can be measured using Multi Tester MT-1001T (manufactured by Seishin Enterprise Co., Ltd.) according to the accompanying manual under the following conditions.
[Measurement Conditions for Angle of Repose]
as §1, §2
Specific example of method of measuring angle of repose: The crystal is piled on an repose angle table (component number: MT-1028) while dropped via a 1.18 mm sieve vibrated at a range of 0.7 mm to 0.8 mm. The repose angle table is rotated without giving vibration, angles are read at three sites, and an arithmetic mean thereof is determined to be the angle of repose.

Turning to “cytidine diphosphate choline [Example 1]”, in series [1], the Dense specific volume turned out to be 2.13 mg/L. Moreover, the Loose specific volume in series [2] is on record as 3.42 mg/L. Further, the Angle of rupture in series [3] came out at 39.6 degree. In addition, the Angle of repose in series [4] is listed as 46.9 degree.

As for cytidine diphosphate choline, the “concentration of the cytidine diphosphate choline in filtrate (solubility)” value (“concentration” for short) reads like this: (ethanol concentration 50% by volume, 30° C.) 282000 µg/mL; (ethanol concentration 50% by volume, 35° C.) 286000 µg/mL; (ethanol concentration 50% by volume, 40° C.) 317000 µg/mL; (ethanol concentration 66% by volume, 30° C.) 27600 µg/mL; (ethanol concentration 66% by volume, 35° C.) 31600 µg/mL; (ethanol concentration 66% by volume, 40° C.) 54200 µg/mL. For the same substance, the “concentration” value is 8490 µg/mL (ethanol concentration 71% by volume, 30° C.); 9700 µg/mL (ethanol concentration 71% by volume, 35° C.); 11100 µg/mL (ethanol concentration 71% by volume, 40° C.); 3230 µg/mL (ethanol concentration 75% by volume, 30° C.); 3650 µg/mL (ethanol concentration 75% by volume, 35° C.); 4040 µg/mL (ethanol concentration 75% by volume, 40° C.). The “concentration” value stood at 1400 µg/mL (ethanol concentration 78% by volume, 30° C.); 1680 µg/mL (ethanol concentration 78% by volume, 35° C.); 1690 µg/mL (ethanol concentration 78% by volume, 40° C.); 760 µg/mL (ethanol concentration 80% by volume, 30° C.); 840 µg/mL (ethanol concentration 80% by volume, 35° C.); 920 µg/mL (ethanol concentration 80% by volume, 40° C.).

Turning to “cytidine diphosphate choline [Comparative Example 3]”, in series [1], the Dense specific volume was determined as 2.19 mg/L. In series [2], the Loose specific volume was determined as 4.19 mg/L. The substance further gave an Angle of rupture in series [3] of 50.8 degree. Moreover, in series [4], the Angle of repose was 57.4 degree.

On to “cytidine diphosphate choline [Example 2]”, for which, in series [1], the Dense specific volume was determined as 1.82 mg/L. Further, the Loose specific volume in series [2] amounted to 2.55 mg/L. In series [3], this substance gave an Angle of rupture of 38.7 degree. For the same substance, in series [4], the Angle of repose is recorded as 47.2 degree.

In the case of “cytidine diphosphate choline [Comparative Example 4]”, the Dense specific volume in series [1] worked out at 2.93 mg/L. The substance also returned a Loose specific volume in series [2] of 5.74 mg/L. The substance also yielded an Angle of rupture in series [3] of 46.4 degree. In addition, the Angle of repose in series [4] was 48.7 degree.

In series [1], “cytidine diphosphate choline [Example 4]” came in with a Dense specific volume of 1.55 mg/L. Moreover, in series [2], the Loose specific volume is listed as 2.00 mg/L. In addition, the Angle of rupture in series [3] was 41.6 degree. Further, the Angle of repose in series [4] amounted to 43.4 degree.

In turn, “cytidine diphosphate choline [Example 3]” yielded a Dense specific volume in series [1] of 2.19 mg/L. Further, in series [2], the Loose specific volume was determined as 3.58 mg/L. In series [3], this substance came in with an Angle of rupture of 47.1 degree. For the same substance, the Angle of repose in series [4] is 52.8 degree.

“cytidine diphosphate choline [Comparative Example 1]” registered a Dense specific volume in series [1] of 1.49 mg/L. Moreover, the Loose specific volume in series [2] was found to be 2.33 mg/L. Moreover, the Angle of rupture in series [3] came out at 40.1 degree. The Angle of repose in series [4] was 49.6 degree.

As to “cytidine diphosphate choline [Product of company A]”, the Dense specific volume in series [1] turned out to be 1.67 mg/L. This substance also returned a Loose specific volume in series [2] of 2.81 mg/L. The same substance showed an Angle of rupture in series [3] of 48.7 degree. The same substance yielded an Angle of repose in series [4] of 56.6 degree.

These data come from US11186605B2 (KYOWA HAKKO BIO CO., LTD., priority 2016, dated 2021).
